IC50 data for 17 compounds are collected here from patent US9682925B2, “Cyclopropaneamine compound” (TAKEDA PHARMACEUTICAL COMPANY LIMITED, priority 2011, dated 2017).

What is called IC50 is the concentration that inhibits the measured activity by half.

Format in all cases: biochemical
One test concerns the target T1, human LSD1(171-852) (Homo sapiens, UniProt O60341).
T1 construct: to give hLSD1(171-852) purified product; made in house; host or cells: Escherichia coli C43(DE3) pLysS
Nature of the test: Measurement of LSD1 inhibitory activity (time-resolved fluorescence, biotin-histone H3 mono methylated K4 peptide). The note with it: read-out: LSD1 IC50 value. Here is the method: When the turbidity reached 600 Klett units, the culture temperature was changed to 16° C., IPTG having a final concentration of 0.5 mM was added to induce expression, and the cells were cultured further for 21 hr. The culture medium was centrifuged at 9,000 g for 10 min, and Escherichia coli pellets were recovered.
Escherichia coli pellets in 9 L of the culture medium were suspended in 1340 mL of an extraction buffer (PBS, 5% (V/V) Glycerol), and 6700 units of Benzonase (Merck) were added. Using Branson ultrasonic disintegrator, the suspension was disrupted by ultrasonication for 3 min, and centrifuged at 33,000 g for 20 min, and the supernatant was recovered.
(5) Measurement of LSD1 Inhibitory Activity
After reaction at room temperature for 20 min, 1 mM 2-PCPA solution (5 μL) was added to terminate the reaction. A detection solution (800 mM potassium fluoride, 0.1% BSA) containing europium-labeled antihistone H3 antibody (Wako Pure Chemical Industries, Ltd.) and Streptavidin-XL665 (Cisbio) was further added by 5 μL, and the mixture was left standing for 60 min. A time-resolved fluorescence (excitation 320 nm, emission 615 nm, 665 nm) was measured by Envision (PerkinElmer). The LSD1 inhibitory rate (%) of the test compound was calculated by the following formula. inhibitory rate (%)=(1−(test compound count−blank)÷(control−blank)×100
The count of the LSD1 enzyme reaction mixture under compound non-addition conditions is indicated as control, and the count under compound non-addition and LSD1 enzyme non-addition conditions is indicated as blank.

The target of another test is T2, MAO-B (Homo sapiens, UniProt P27338).
T2 construct: purchased Sigma-Aldrich Co. LLC
T2 sequence (P27338 1-520): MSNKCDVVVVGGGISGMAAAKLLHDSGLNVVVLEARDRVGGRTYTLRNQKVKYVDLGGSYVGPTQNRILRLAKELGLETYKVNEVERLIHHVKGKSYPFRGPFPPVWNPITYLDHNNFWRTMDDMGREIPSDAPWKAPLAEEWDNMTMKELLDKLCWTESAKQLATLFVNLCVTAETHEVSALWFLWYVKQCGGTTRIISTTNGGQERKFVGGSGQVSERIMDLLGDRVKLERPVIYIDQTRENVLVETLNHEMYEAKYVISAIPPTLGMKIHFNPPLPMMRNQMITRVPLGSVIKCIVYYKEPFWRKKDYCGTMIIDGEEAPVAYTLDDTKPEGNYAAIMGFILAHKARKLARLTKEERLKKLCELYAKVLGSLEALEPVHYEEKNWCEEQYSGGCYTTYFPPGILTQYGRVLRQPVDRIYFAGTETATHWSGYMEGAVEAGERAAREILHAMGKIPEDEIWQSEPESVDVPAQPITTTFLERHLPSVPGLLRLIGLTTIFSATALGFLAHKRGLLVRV
The test is described as follows: Measurement of MAO-B inhibitory activity (MAO-Glo Assay). Here is the method:
(2) Measurement of MAO-B Inhibitory Activity
The MAO-B inhibitory activity evaluation described below followed the protocol of MAO-Glo (registered trademark) Assay of Promega KK.
(§1) A test compound dissolved in 4% DMSO was added by 12.5 μL to 25 μL reaction solution (100 mM HEPES (pH 7.5), 5% glycerol, 10% DMSO) containing 400 ng of MAO-B enzyme (Sigma-Aldrich Co. LLC.), and the mixture was reacted at room temperature for 10 min. MAO substrate (Promega KK) (16 μM) was added by 12.5 μL to start the reaction. After reaction at room temperature for 60 min, Luciferine detection reagent (Promega KK) (50 μL) was added to terminate the reaction. After reaction at room temperature for 20 min with stirring, the luminescence was measured by Envision (PerkinElmer). The MAO-B inhibitory rate (%) of the test compound was calculated by the following formula. inhibitory rate (%)=(1−(test compound count−blank)÷(control−blank)×100
The count of the MAO-B enzyme reaction mixture under compound non-addition conditions is indicated as control, and the count under compound non-addition and MAO-B enzyme non-addition conditions is indicated as blank.

For the next test, the target named is T3, MAO-A (Homo sapiens, UniProt P21397).
T3 construct: purchased Sigma-Aldrich Co. LLC
T3 sequence (P21397 1-527): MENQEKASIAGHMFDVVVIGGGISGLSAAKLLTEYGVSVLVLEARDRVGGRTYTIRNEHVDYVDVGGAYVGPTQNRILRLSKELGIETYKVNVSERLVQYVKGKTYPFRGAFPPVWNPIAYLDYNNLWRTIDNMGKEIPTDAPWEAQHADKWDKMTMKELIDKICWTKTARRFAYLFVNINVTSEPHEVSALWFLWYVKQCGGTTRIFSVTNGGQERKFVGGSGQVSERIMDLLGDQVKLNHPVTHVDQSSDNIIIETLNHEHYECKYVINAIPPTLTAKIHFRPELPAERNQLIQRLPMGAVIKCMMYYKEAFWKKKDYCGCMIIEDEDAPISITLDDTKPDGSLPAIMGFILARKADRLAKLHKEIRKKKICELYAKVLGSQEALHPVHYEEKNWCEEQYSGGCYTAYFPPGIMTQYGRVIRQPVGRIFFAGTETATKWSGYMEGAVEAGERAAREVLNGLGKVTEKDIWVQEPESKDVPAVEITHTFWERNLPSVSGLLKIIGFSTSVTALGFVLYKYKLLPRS
The test is described as follows: Measurement of MAO-A inhibitory activity (MAO-Glo Assay). The method, then:
(1) Measurement of MAO-A Inhibitory Activity
The MAO-A inhibitory activity evaluation described below followed the protocol of MAO-Glo (registered trademark) Assay of Promega KK.
as §1, with “glycerol)” for “glycerol, 10% DMSO)”, “MAO-A” for “MAO-B”, “(160” for “(16”
The count of the MAO-A enzyme reaction mixture under compound non-addition conditions is indicated as control, and the count under compound non-addition and MAO-A enzyme non-addition conditions is indicated as blank.

Structures can show the parent of a compound that is named as a salt.

In the case of `O=C(Nc1ccc([C@@H]2C[C@H]2NCc2cccs2)cc1)c1ccccc1` (relative stereo) [Example 13, N-(4-{trans-2-[(thiophen-2-ylmethyl)amino]-cyclopropyl}-phenyl)benzamide], the IC50 at human LSD1(171-852) was less than 0.1 µM; at MAO-B, greater than 10 µM; against MAO-A it was greater than 10 µM.
As to `O=C(Nc1ccc([C@@H]2C[C@H]2NCCCc2ccccc2)cc1)c1ccccc1` (relative stereo) [Example 14, N-(4-{trans-2-[(3-phenyl-propyl)amino]-cyclopropyl}-phenyl)benzamide], the IC50 on human LSD1(171-852) is less than 0.1 µM; on MAO-B, greater than 10 µM; on MAO-A, greater than 10 µM.
Turning to `O=C(Nc1ccc([C@@H]2C[C@H]2NCc2ccccc2F)cc1)c1ccccc1` (relative stereo) [Example 15, N-(4-{trans-2-[(2-fluoro-benzyl)amino]-cyclopropyl}-phenyl)benzamide], the values for the concentration for half-maximal inhibition (IC50) on human LSD1(171-852), against MAO-B and on MAO-A were less than 0.1 µM, greater than 10 µM and 6 µM, respectively.
As to `O=C(Nc1ccc([C@@H]2C[C@H]2NCc2ccc(-c3ccccc3)cc2)cc1)c1ccccc1` (relative stereo) [Example 16, N-(4-{trans-2-[(biphenyl-4-ylmethyl)amino]-cyclopropyl}-phenyl)benzamide], the IC50 is less than 0.1 µM at human LSD1(171-852), greater than 10 µM against MAO-B and 4.7 µM against MAO-A.
Take `CC(C)(C)CN[C@@H]1C[C@H]1c1ccc(NC(=O)c2ccccc2)cc1` (relative stereo) [Example 17, N-(4-{trans-2-[(2,2-dimethyl-propyl)amino]-cyclopropyl)-phenyl)benzamide]: the 50% inhibitory concentration (IC50) on human LSD1(171-852) is less than 0.1 µM; against MAO-B, greater than 10 µM; against MAO-A it was greater than 10 µM.
Consider `O=C(Nc1ccc([C@@H]2C[C@H]2NCc2ccc3ccccc3c2)cc1)c1ccccc1` (relative stereo) [Example 18, N-(4-{trans-2-[(naphthalen-2-ylmethyl)amino]-cyclopropyl}-phenyl)benzamide], for which the values for the IC50 on human LSD1(171-852), on MAO-B and at MAO-A were less than 0.1 µM, greater than 10 µM and 2.6 µM, respectively.
For `CC(N[C@@H]1C[C@H]1c1ccc(NC(=O)c2ccccc2)cc1)c1ccccc1` (relative stereo) [Example 19, N-(4-{trans-2-[(1-phenyl-ethyl)amino]-cyclopropyl}-phenyl)benzamide], the figures for the IC50 at human LSD1(171-852), against MAO-B and on MAO-A were less than 0.1 µM, 3.2 µM and greater than 10 µM, respectively.
In the case of `O=C(Nc1ccc([C@@H]2C[C@H]2NC2CCc3ccccc32)cc1)c1ccccc1` (relative stereo) [Example 20, N-{4-[trans-2-(2,3-dihydro-1H-inden-1-ylamino)cyclo-propyl]phenyl}-benzamide], the IC50 on human LSD1(171-852) is less than 0.1 µM; on MAO-B, greater than 10 µM; against MAO-A it was greater than 10 µM.
For the compound `O=C(Nc1ccc([C@@H]2C[C@H]2NC2c3ccccc3-c3ccccc32)cc1)c1ccccc1` (relative stereo) [Example 21, N-{4-[trans-2-(9H-fluoren-9-ylamino)cyclo-propyl]phenyl}-benzamide], the IC50 at human LSD1(171-852) was less than 0.1 µM; against MAO-B, greater than 10 µM; on MAO-A, greater than 10 µM.
Consider `CCCCCCCCCCCCN[C@@H]1C[C@H]1c1ccc(NC(=O)c2ccccc2)cc1` (relative stereo) [Example 22, N-{4-[trans-2-(dodecylamino)-cyclopropyl]-phenyl}benzamide], for which the values for the half-inhibitory concentration (IC50) on human LSD1(171-852), against MAO-B and against MAO-A were 0.41 µM, 2.6 µM and 3.6 µM, respectively.
In the case of `O=C(Nc1ccc([C@@H]2C[C@H]2NC2CCCCCC2)cc1)c1ccccc1` (relative stereo) [Example 23, N-{4-[trans-2-(cycloheptyl-amino)cyclo-propyl]phenyl}-benzamide], the IC50 at human LSD1(171-852) was less than 0.1 µM; against MAO-B, greater than 10 µM; at MAO-A, greater than 10 µM.
As for `O=C(Nc1ccc([C@@H]2C[C@H]2NC2CCCCCCC2)cc1)c1ccccc1` (relative stereo) [Example 24, N-{4-[trans-2-(cyclooctyl-amino)cyclo-propyl]phenyl}-benzamide], the IC50 is less than 0.1 µM on human LSD1(171-852), greater than 10 µM against MAO-B and greater than 10 µM at MAO-A.
Turning to `O=C(Nc1ccc([C@@H]2C[C@H]2NC2CCN(Cc3ccccc3)CC2)cc1)c1ccccc1` (relative stereo) [Example 25, N-(4-{trans-2-[(1-benzyl-piperidin-4-yl)amino]cyclo-propyl}phenyl)-benzamide], the 50% inhibitory concentration (IC50) was less than 0.1 µM on human LSD1(171-852), greater than 10 µM at MAO-B and greater than 10 µM against MAO-A.
For `O=C(Nc1ccc([C@@H]2C[C@H]2NCCOCc2ccccc2)cc1)c1ccccc1` (relative stereo) [Example 26, N-[4-(trans-2-{[2-(benzyloxy)-ethyl]amino}-cyclopropyl)-phenyl]benzamide], the IC50 was less than 0.1 µM at human LSD1(171-852), greater than 10 µM at MAO-B and 9.2 µM against MAO-A.
Take `O=C(Nc1ccc([C@@H]2C[C@H]2NCc2ccccc2)cc1)c1cccc(Cc2ccccc2)c1` (relative stereo) [Example 28, 3-benzyl-N-{4-[trans-2-(benzylamino)cyclopropyl]phenyl}benzamide]: the results for the IC50 at human LSD1(171-852), on MAO-B and against MAO-A were less than 0.1 µM, greater than 10 µM and 3.5 µM, respectively.
For the compound `O=C(Nc1ccc([C@@H]2C[C@H]2NCc2ccccc2)cc1)c1cccc(NCc2ccccc2)c1` (relative stereo) [Example 29, 3-(benzylamino)-N-{4-[trans-2-(benzylamino)cyclopropyl]phenyl}benzamide], the 50% inhibitory concentration (IC50) on human LSD1(171-852) was 0.11 µM; at MAO-B, greater than 10 µM; against MAO-A, 5.2 µM.
With `O=C(Nc1ccc([C@@H]2C[C@H]2N2CCCC2)cc1)c1ccccc1` (relative stereo) [Example 30, N-{4-[trans-2-(pyrrolidin-1-yl)cyclopropyl]phenyl}benzamide hydrochloride], the IC50 at human LSD1(171-852) was 0.58 µM; against MAO-B, greater than 10 µM; against MAO-A, 1.7 µM.
